How the values were obtained:
Experiment in all cases: pIC50, kinobeads binding competition
UniProt P17252 = biological target: UniProt P17252
Procedure, shortened: (§1)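 Live Jurkat cells were treated with nine compound concentrations (top 30 μM, 1:4 steps) or DMSO for 60 min at 37 °C before lysis. Alternatively, Jurkat lysate or a 1:1:1:1 HEK293/K-562/HepG2/placenta lysate mix was incubated with nine concentrations (top 30 μM, 1:5 steps) for 60 min at 4 °C. Kinobeads-bound proteins were digested and quantified by TMT10 LC-MS/MS. pIC50 came from logistic dose-response fits (R drc package) of fold changes versus DMSO, in biological duplicates.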

MAP4K2 = biological target: T1, MAP4K2 (UniProt Q12851)
T1 sequence (whole entry): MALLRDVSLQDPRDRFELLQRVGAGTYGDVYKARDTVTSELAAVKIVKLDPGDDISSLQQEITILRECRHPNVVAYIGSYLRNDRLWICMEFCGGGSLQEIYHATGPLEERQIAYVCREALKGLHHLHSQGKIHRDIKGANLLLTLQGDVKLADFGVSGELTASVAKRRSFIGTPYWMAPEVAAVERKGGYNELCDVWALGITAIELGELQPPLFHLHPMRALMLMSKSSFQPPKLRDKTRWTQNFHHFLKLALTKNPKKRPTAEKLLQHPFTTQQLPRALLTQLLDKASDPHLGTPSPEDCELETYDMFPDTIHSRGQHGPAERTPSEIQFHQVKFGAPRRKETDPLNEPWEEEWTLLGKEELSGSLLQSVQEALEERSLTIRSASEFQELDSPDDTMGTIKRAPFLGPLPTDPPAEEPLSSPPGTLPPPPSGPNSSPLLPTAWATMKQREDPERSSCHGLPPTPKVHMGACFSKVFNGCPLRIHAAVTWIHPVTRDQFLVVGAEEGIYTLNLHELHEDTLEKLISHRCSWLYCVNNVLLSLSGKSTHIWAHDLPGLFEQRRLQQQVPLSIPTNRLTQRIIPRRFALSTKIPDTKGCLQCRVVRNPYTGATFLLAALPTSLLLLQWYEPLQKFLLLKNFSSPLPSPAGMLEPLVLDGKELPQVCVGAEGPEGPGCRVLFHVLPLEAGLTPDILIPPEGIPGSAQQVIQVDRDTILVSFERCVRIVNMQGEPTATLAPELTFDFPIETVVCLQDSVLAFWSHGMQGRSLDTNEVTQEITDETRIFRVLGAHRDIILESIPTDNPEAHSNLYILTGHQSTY
Procedure, shortened: as §1

MAST4 = MAST4 (UniProt O15021)
MAST4, sequence (O15021 whole entry): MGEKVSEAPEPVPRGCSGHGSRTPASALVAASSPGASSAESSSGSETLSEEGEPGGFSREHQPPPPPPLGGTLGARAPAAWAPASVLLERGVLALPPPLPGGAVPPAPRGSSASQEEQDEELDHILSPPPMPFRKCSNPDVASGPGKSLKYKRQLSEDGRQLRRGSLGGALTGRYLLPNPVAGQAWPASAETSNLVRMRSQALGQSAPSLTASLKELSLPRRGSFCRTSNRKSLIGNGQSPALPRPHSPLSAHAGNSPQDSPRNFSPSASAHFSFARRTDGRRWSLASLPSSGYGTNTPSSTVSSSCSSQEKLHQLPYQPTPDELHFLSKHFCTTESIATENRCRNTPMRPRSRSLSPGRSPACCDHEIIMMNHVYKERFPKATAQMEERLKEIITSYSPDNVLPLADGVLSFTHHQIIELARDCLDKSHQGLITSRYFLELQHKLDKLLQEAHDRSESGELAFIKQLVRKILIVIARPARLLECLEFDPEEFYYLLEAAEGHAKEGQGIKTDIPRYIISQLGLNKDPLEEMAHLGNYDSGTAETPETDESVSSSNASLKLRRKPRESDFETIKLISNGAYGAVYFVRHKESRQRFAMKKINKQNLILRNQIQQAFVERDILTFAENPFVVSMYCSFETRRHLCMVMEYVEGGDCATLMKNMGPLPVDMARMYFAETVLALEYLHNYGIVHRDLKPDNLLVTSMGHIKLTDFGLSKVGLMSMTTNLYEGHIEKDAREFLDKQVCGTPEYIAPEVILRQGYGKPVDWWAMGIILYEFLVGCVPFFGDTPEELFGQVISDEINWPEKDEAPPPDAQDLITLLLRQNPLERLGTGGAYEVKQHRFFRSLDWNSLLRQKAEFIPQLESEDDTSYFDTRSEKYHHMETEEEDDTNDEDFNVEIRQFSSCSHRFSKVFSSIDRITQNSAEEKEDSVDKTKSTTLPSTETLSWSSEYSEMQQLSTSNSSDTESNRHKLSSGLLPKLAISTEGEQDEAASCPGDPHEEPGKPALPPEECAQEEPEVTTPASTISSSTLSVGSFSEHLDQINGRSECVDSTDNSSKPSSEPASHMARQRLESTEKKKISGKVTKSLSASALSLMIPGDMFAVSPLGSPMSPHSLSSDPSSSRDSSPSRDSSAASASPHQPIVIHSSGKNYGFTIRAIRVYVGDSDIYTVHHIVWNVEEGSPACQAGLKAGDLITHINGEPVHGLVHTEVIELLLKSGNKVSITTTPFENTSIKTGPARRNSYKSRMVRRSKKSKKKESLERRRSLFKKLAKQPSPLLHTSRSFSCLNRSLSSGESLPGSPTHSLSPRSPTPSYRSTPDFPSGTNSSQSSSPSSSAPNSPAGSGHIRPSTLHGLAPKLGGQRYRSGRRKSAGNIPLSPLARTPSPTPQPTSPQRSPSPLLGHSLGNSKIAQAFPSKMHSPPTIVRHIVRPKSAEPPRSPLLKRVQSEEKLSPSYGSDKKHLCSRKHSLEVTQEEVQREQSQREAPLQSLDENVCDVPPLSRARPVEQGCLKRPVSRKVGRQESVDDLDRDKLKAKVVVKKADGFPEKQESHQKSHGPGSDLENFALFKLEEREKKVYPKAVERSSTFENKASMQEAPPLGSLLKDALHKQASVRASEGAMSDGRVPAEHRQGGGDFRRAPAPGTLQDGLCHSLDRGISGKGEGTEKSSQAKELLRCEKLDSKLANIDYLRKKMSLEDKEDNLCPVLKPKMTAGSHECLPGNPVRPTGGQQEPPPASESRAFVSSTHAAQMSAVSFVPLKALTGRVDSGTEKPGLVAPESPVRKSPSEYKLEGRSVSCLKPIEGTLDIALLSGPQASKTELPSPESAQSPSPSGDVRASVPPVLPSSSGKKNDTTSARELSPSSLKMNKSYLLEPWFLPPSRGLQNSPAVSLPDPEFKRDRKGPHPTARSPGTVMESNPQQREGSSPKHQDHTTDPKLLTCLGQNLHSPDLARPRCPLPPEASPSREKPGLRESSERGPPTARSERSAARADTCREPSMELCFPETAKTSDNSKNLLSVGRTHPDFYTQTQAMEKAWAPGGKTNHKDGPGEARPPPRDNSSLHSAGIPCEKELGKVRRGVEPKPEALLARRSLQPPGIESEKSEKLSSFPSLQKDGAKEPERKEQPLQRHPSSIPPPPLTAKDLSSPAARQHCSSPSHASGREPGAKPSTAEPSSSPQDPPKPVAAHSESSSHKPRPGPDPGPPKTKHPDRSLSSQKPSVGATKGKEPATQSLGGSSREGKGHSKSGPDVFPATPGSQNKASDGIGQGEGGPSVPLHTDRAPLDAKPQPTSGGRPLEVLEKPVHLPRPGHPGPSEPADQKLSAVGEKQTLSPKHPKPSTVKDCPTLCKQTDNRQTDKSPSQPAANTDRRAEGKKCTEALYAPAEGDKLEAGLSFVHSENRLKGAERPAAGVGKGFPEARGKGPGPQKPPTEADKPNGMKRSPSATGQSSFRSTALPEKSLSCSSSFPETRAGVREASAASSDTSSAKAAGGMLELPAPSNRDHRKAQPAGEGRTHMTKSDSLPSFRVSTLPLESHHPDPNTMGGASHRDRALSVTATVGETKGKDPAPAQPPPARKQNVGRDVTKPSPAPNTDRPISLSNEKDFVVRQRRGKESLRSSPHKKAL
Procedure, shortened: as §1

PCTK3 = PCTK3 (UniProt Q07002)
PCTK3, sequence (Q07002 whole entry): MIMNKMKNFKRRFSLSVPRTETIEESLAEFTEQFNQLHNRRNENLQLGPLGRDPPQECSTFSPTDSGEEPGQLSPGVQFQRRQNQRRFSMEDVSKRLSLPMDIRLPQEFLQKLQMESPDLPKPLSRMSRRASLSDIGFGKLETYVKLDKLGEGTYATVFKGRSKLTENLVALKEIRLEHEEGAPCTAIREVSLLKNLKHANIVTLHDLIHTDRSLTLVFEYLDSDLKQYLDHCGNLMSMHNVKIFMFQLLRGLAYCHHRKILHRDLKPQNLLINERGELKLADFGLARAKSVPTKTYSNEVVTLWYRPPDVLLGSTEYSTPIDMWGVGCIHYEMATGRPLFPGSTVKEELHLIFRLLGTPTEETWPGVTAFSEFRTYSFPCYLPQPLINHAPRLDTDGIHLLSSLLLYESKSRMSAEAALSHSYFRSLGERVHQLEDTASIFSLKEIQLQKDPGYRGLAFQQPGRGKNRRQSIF
Procedure, shortened: as §1

UniProt O94768 = biological target: T2, UniProt O94768
T2 sequence (whole entry): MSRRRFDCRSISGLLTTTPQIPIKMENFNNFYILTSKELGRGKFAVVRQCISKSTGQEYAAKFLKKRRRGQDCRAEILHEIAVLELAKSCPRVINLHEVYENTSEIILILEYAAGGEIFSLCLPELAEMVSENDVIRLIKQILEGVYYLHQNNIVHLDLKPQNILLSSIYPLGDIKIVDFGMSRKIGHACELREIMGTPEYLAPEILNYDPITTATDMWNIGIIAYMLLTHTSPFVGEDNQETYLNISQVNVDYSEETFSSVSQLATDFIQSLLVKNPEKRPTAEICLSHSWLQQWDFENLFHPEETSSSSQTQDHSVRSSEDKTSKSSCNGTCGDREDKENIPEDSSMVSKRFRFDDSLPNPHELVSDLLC
Procedure, shortened: as §1

UniProt P09619 = conditions: cell material: Lysate mix
UniProt P09619, sequence (P09619 whole entry): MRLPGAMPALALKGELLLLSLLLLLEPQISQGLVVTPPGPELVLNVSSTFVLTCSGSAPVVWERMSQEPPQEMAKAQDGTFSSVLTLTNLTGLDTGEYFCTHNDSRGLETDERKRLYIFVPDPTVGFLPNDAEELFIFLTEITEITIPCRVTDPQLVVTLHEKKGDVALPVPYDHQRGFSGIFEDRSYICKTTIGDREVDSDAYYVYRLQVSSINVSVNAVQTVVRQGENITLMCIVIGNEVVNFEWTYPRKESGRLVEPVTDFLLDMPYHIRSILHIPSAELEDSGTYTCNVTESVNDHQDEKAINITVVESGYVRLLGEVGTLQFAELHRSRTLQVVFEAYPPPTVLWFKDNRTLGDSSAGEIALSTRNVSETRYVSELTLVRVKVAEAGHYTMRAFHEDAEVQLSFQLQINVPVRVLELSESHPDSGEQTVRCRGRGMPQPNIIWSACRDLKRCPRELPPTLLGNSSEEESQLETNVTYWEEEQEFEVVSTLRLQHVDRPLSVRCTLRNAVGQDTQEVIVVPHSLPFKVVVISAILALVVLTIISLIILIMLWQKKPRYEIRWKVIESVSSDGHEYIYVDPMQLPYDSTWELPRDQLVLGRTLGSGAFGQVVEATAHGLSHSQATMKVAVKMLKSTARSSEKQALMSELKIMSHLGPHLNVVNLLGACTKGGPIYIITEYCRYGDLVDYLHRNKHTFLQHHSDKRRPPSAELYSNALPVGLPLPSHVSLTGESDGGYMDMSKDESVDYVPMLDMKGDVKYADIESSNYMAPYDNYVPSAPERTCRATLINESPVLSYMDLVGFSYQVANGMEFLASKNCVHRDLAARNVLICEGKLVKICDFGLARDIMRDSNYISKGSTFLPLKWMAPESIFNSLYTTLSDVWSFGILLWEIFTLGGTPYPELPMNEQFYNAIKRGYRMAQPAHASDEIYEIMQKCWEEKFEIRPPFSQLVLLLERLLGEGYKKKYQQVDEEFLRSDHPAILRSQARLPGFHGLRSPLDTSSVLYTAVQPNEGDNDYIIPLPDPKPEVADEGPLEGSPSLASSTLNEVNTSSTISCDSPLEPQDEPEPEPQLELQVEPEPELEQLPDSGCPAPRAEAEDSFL
Procedure, shortened: as §1

UniProt P51955 = biological target: T3, UniProt P51955
T3 sequence (whole entry): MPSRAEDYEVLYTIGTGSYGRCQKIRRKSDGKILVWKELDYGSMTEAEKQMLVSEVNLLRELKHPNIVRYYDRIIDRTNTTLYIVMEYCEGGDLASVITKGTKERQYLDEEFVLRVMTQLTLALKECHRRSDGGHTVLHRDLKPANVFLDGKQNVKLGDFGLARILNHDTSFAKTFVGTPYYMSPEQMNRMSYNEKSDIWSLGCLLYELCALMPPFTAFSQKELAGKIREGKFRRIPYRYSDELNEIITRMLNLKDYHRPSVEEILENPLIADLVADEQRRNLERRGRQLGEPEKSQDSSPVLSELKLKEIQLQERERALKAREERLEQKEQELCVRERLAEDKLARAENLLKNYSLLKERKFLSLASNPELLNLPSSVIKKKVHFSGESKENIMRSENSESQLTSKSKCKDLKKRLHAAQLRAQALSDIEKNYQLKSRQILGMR
Procedure, shortened: as §1

DDR2 = biological target: T4, DDR2 (UniProt Q16832); conditions: cell material: Lysate mix
T4 sequence (whole entry): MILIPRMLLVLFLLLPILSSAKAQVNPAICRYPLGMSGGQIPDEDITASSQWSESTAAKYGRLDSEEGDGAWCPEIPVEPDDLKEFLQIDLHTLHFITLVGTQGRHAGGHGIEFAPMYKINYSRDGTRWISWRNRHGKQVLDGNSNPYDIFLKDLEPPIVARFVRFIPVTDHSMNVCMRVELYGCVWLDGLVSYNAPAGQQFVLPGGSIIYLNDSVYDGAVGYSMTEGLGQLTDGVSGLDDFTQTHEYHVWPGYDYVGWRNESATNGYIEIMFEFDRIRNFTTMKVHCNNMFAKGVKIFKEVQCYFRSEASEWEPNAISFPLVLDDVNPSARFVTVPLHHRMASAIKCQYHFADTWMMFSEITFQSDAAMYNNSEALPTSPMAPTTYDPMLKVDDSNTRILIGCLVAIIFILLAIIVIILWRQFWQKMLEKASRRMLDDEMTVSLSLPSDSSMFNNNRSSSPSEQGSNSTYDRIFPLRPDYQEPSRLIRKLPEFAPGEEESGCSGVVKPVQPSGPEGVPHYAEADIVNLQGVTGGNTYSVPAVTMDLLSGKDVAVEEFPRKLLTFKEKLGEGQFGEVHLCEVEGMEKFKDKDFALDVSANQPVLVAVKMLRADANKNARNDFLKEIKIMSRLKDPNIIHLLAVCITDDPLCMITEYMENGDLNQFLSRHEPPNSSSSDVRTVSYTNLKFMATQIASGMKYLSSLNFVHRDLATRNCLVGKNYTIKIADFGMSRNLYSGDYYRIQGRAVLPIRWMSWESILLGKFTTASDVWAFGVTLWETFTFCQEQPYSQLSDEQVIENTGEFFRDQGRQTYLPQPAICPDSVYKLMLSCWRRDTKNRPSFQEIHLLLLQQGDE
Procedure, shortened: as §1

In the case of `C#CCNC(=O)c1cc(Nc2cc(C3CC3)[nH]n2)nc(N2CCN(Cc3ccc(S(=O)(=O)F)cc3)CC2)n1`, the pIC50 (UniProt P17252; cell material: Jurkat cells) is reported as 5.48, the pIC50 (UniProt P17252; cell material: Jurkat lysate) is reported as under 4.52 and the pIC50 (UniProt P17252; cell material: Lysate mix) is reported as under 4.52. The pIC50 (MAP4K2; cell material: Jurkat cells) was 5.92, the pIC50 (MAP4K2; cell material: Jurkat lysate) was 4.56 and the pIC50 (MAP4K2; cell material: Lysate mix) was 5.36. The pIC50 (MAST4; cell material: Jurkat lysate) was 6.46, the pIC50 (MAST4; cell material: Lysate mix) was 7 and the pIC50 (PCTK3; cell material: Jurkat cells) was 6.2. For the same compound, the pIC50 (PCTK3; cell material: Jurkat lysate) was under 4.52, the pIC50 (PCTK3; cell material: Lysate mix) was 5.2 and the pIC50 (UniProt O94768; cell material: Jurkat lysate) was under 4.52. It also gave a pIC50 (UniProt O94768; cell material: Lysate mix) of under 4.52, a pIC50 (UniProt P09619) of under 4.52 and a pIC50 (UniProt P51955; cell material: Jurkat cells) of 6.69. For the same compound, the pIC50 (UniProt P51955; cell material: Jurkat lysate) was 5.41, the pIC50 (UniProt P51955; cell material: Lysate mix) was 5.87 and the pIC50 (DDR2) was under 4.52.
`C#CCNC(=O)c1cc(Nc2cc(C)[nH]n2)nc(N2CCN(Cc3ccc(S(=O)(=O)F)cc3)CC2)n1` showed a pIC50 (UniProt P17252; cell material: Lysate mix) of under 4.52, a pIC50 (MAP4K2; cell material: Lysate mix) of 4.81 and a pIC50 (MAST4; cell material: Lysate mix) of 6.06. For the same compound, the pIC50 (PCTK3; cell material: Lysate mix) was under 4.52, the pIC50 (UniProt O94768; cell material: Lysate mix) was under 4.52 and the pIC50 (UniProt P09619) was under 4.52. For the same compound, the pIC50 (UniProt P51955; cell material: Lysate mix) was 4.81 and the pIC50 (DDR2) was under 4.52.
`Cc1cc(Nc2cc(C(=O)NCCNC(=O)OC3CC/C=C/CCC3)nc(N3CCN(Cc4ccc(S(=O)(=O)F)cc4)CC3)n2)n[nH]1` (centres undefined) showed a pIC50 (UniProt P17252; cell material: Lysate mix) of under 4.52, a pIC50 (MAP4K2; cell material: Lysate mix) of under 4.52 and a pIC50 (MAST4; cell material: Lysate mix) of 4.74. The pIC50 (PCTK3; cell material: Lysate mix) was under 4.52, the pIC50 (UniProt O94768; cell material: Lysate mix) was under 4.52 and the pIC50 (UniProt P09619) was under 4.52. It also gave a pIC50 (UniProt P51955; cell material: Lysate mix) of under 4.52 and a pIC50 (DDR2) of under 4.52.
For `O=C(NCCNC(=O)c1cc(Nc2cc(C3CC3)[nH]n2)nc(N2CCN(Cc3ccc(S(=O)(=O)F)cc3)CC2)n1)OC1CC/C=C/CCC1` (centres undefined), the pIC50 (UniProt P17252; cell material: Jurkat lysate) was under 4.52, the pIC50 (UniProt P17252; cell material: Lysate mix) was under 4.52 and the pIC50 (MAP4K2; cell material: Jurkat cells) was 5.33. For the same compound, the pIC50 (MAP4K2; cell material: Jurkat lysate) was under 4.52, the pIC50 (MAP4K2; cell material: Lysate mix) was under 4.52 and the pIC50 (MAST4; cell material: Jurkat cells) was 6.3. It also gave a pIC50 (MAST4; cell material: Jurkat lysate) of 5.17, a pIC50 (MAST4; cell material: Lysate mix) of 5.3 and a pIC50 (PCTK3; cell material: Jurkat cells) of 5.7. For the same compound, the pIC50 (PCTK3; cell material: Jurkat lysate) was under 4.52, the pIC50 (PCTK3; cell material: Lysate mix) was under 4.52 and the pIC50 (UniProt O94768; cell material: Jurkat cells) was under 4.52. The pIC50 (UniProt O94768; cell material: Jurkat lysate) was under 4.52, the pIC50 (UniProt O94768; cell material: Lysate mix) was under 4.52 and the pIC50 (UniProt P09619) was under 4.52. For the same compound, the pIC50 (UniProt P51955; cell material: Jurkat cells) was 6.24, the pIC50 (UniProt P51955; cell material: Jurkat lysate) was under 4.52 and the pIC50 (UniProt P51955; cell material: Lysate mix) was under 4.52. The pIC50 (DDR2) was under 4.52.
With `CCNC(=O)c1cc(Nc2cc(C)[nH]n2)nc(N2CCN(Cc3ccc(S(=O)(=O)F)cc3)CC2)n1` the pIC50 (UniProt P17252; cell material: Lysate mix) was under 4.52, the pIC50 (MAP4K2; cell material: Lysate mix) was 4.7 and the pIC50 (MAST4; cell material: Lysate mix) was 6.4. For the same compound, the pIC50 (PCTK3; cell material: Lysate mix) was under 4.52, the pIC50 (UniProt O94768; cell material: Lysate mix) was under 4.52 and the pIC50 (UniProt P09619) was under 4.52. It also gave a pIC50 (UniProt P51955; cell material: Lysate mix) of 4.67 and a pIC50 (DDR2) of under 4.52.
Compound `CCNC(=O)c1cc(Nc2cc(C3CC3)[nH]n2)nc(N2CCN(Cc3ccc(S(=O)(=O)F)cc3)CC2)n1` has a pIC50 (UniProt P17252; cell material: Lysate mix) of 5.11, a pIC50 (MAP4K2; cell material: Lysate mix) of 4.88 and a pIC50 (MAST4; cell material: Lysate mix) of 6.37. For the same compound, the pIC50 (PCTK3; cell material: Lysate mix) was 5.36, the pIC50 (UniProt O94768; cell material: Lysate mix) was under 4.52 and the pIC50 (UniProt P09619) was under 4.52. It also gave a pIC50 (UniProt P51955; cell material: Lysate mix) of 5.69 and a pIC50 (DDR2) of 4.57.
